# Reference: publication PMC8041318, “Folic Acid–Peptide Conjugates Combine Selective Cancer Cell Internalization with Thymidylate Synthase Dimer Interface Targeting” (Journal of Medicinal Chemistry, 2021)
# Assays:
# RFC = conditions: physiological conditions; read-out: Km toward RFC; cited from earlier work
# [1] = test system: R1-11-FR2 and R5-FR12 HeLa cells; set-up: method as in PMID 19074442; conditions: tritiated FA; cited from earlier work
# IGROV-1 cells = test: Cell growth inhibition, crystal violet dye assay; assay type: cell-based, human
# Text: (§1) SQ was defined as the net growth inhibitory effect of the analogue combination divided by the sum of the net individual analogue effects on growth inhibition. A quotient of >1.1 indicates a synergistic effect, that between 0.9 and 1.1 indicates an additive effect, while a quotient of <0.9 indicates an antagonistic effect.
# A2780 cells = test: Cell growth inhibition, crystal violet dye assay (combination study); assay type: cell-based, human
# Text: as §1
# DHFR = conditions: IGROV-1, 5 μM, 48 h
# HSP90AA1 = conditions: IGROV-1, 5 μM, 48 h
# in vitro = conditions: human, cytosol
# Experimental: Given the relevance of the concentration data, we checked whether the 30 min incubation time could represent a drawback in our analytical approach.
# C13* human ovarian cancer cell lines (highly cisplatin-resistant) were prepared as reported for IGROV1 (LC-MS compartmentalization experiment).[65] […] After each interval, the cells (about 2 million per Petri plate) were washed three times with acid phosphate-buffered saline (PBS, pH 5.0), scraped, and counted. […] Each cytosol aliquot was diluted to a final volume of 500 μL with a 1:1 mixture of H2O with 0.1% HCOOH and ACN with 1 μM 1,4-dithiothreitol (DTT) as an antioxidant agent.
# Sample analysis was carried out on an UltiMate 3000 UHPLC (Thermo Fisher Scientific) coupled to an Orbitrap Q-Exactive mass spectrometer. We used an Agilent Poroshell C18 column (120 Å, 100 × 2.1 mm^2, 2.7 μm ps) to separate the analytes, thermostated at 30 °C, with an injection volume of 20 μL per sample. […] C13* cells were assumed to have a spherical volume of 2 pL, whose 60% represented by cytoplasm. Thus, interpolated values were multiplied by the final dilution value (500 μL) and divided by the number of cells for each sample multiplied by a single-cell cytosol volume (1.2 pL).
compound,measurement,setting,value
"Nc1nc2[nH]cc(CCc3ccc(C(=O)N[C@@H](CCC(=O)O)C(=O)O)cc3)c2c(=O)[nH]1 [PMX, pemetrexed]",upregulation of hTS protein levels,"hTS; IGROV-1, 5 μM, 48 h",2.5 fold
"Nc1nc2ncc(CNc3ccc(C(=O)N[C@@H](CCC(=O)O)C(=O)O)cc3)nc2c(=O)[nH]1 [FA, folic acid]",Km,RFC,> 100 µM
same,ratio of concentrations between vesicular and cytosolic fractions,[1],10.8
"O=c1[nH]cc(F)c(=O)[nH]1 [5-FU, 5-fluorouracil]","% Growth inhibition, single compound",IGROV-1 cells; 5FU 10µM,28.4%
same,"% Growth inhibition, single compound",IGROV-1 cells; 5FU 15µM,36.5%
same,"% Growth inhibition, single compound",A2780 cells; 5FU 10µM,45.3%
same,"% Growth inhibition, single compound",A2780 cells; 5FU 15µM,34.5%
same,hTS protein levels (in words),"hTS; IGROV-1, Figures SI-10 and SI-11",slightly increased
CC(C)C[C@H](NC(=O)CC[C@H](NC(=O)c1ccc(NCc2cnc3nc(N)nc(O)c3n2)cc1)C(=O)O)C(=O)N[C@@H](CO)C(=O)N[C@@H](CS)C(=O)N[C@H](CCC(N)=O)C(=O)N[C@@H](CC(C)C)C(=O)N[C@@H](Cc1ccc(O)cc1)C(=O)N[C@@H](CCC(N)=O)C(=O)N[C@@H](CCCNC(=N)N)C(=O)O [FA–[DGln^4]LR],DHFR protein level with respect to control (in words),DHFR,clear decrease
same,reduction of HSP90AA1 level,HSP90AA1,10%
Cc1nc2ccc(CN(C)c3ccc(C(=O)N[C@@H](CCC(=O)O)C(=O)O)s3)cc2c(=O)[nH]1 [raltitrexed],"% Growth inhibition, single compound",IGROV-1 cells; RTX 10nM,34.5%
same,"% Growth inhibition, single compound",IGROV-1 cells; RTX 20nM,29.5%
same,"% Growth inhibition, single compound",A2780 cells; RTX 10nM,56.8%
same,"% Growth inhibition, single compound",A2780 cells; RTX 20nM,59.9%
CC(C)C[C@H](NC(=O)CC[C@H](NC(=O)c1ccc(NCc2cnc3nc(N)[nH]c(=O)c3n2)cc1)C(=O)O)C(=O)N[C@@H](CO)C(=O)N[C@@H](CS)C(=O)N[C@@H](CCC(N)=O)C(=O)N[C@@H](CC(C)C)C(=O)N[C@@H](Cc1ccc(O)cc1)C(=O)N[C@@H](CCC(N)=O)C(=O)N[C@@H](CCCNC(=N)N)C(=O)O [FA–LR],half-life,in vitro,3.33 h
"[NH2][Pt]([NH2])([Cl])[Cl] [cDDP, cisplatin]","% Growth inhibition, single compound",IGROV-1 cells; cDDP 1µM,40.3%
same,"% Growth inhibition, single compound",IGROV-1 cells; cDDP 2µM,44.9%
same,"% Growth inhibition, single compound",IGROV-1 cells; cDDP 5µM,48.8%
same,"% Growth inhibition, single compound",A2780 cells; cDDP 1µM,37.3%
same,"% Growth inhibition, single compound",A2780 cells; cDDP 2µM,49.1%
same,"% Growth inhibition, single compound",A2780 cells; cDDP 5µM,78.6%
